By pKd is commonly meant the negative decadic logarithm of the Kd, by convention in mol/L. Low readings indicate a large Kd, high ones a small Kd.

The record followed here is publication PMC8682738, “Constrained peptides mimic a viral suppressor of RNA silencing” (Nucleic Acids Research, 2021).

pKd: −log10 of the molar value. Values joined by “and” are separate entries in the source; they are usually repeats but may differ in a detail not shown here. Equal entries are not always repeated. Positions of bridges follow the written chain, without caps; N, C: chain ends. Non-standard residues stand in square brackets, D forms with d. Residues, ends and D or L forms follow the SMILES beside them. *: point of attachment. FITC = O=C1OC2(c3ccc(O)cc3Oc3cc(O)ccc32)c2ccc(NC(=S)*)cc21; R8 = C=CCCCCCC[C@@](C)(N)C(=O)O; S5 = C=CCCC[C@](C)(N)C(=O)O; AEEA = NCCOCCOCC(=O)O

Series [1] deals with proteinase K (Parengyodontium album, UniProt P06873). The experiment in a line: Protease stability assay. In kind it is in vitro ADME. The note with it: proteinase K 10 μg·ml^−1, fluorescein-labeled peptide 50 μM, 10 mM Tris pH 8.0, 150 mM NaCl, room temperature, HPLC absorbance 210 nm, exponential decay fit. How it is done:
Protease stability assays were performed in analogy to a previously published protocol ([47]). Stocks of fluorescein-labeled peptides were prepared to a concentration of 55.5 μM in assay buffer (10 mM Tris, pH 8.0, 150 mM NaCl) and separately stocks of proteinase K also in assay buffer (c = 100 μg·ml^−1). To begin each experiment, peptide and proteinase K stocks were mixed (final concentrations: c = 10 μg·ml^−1 proteinase K, c = 50 μM fluorescein-labeled peptide; final volume = 500 μl) and incubated at room temperature. At each time point, 50 μl of the reaction mixture was quenched by adding 100 μl of TFA/ACN/H2O (v/v/v, 1:49:49) and subsequently incubated for 2 min on ice. Following centrifugation (15 min, 13200 rpm, 4°C), samples (45 μl) were monitored by analytical HPLC using a linear gradient of 10–60% HPLC solvent B over 20 min. The amount of remaining peptide was quantified via absorbance at λ = 210 nm (intact peptide (%)) and plotted against time (t) (h). Half-life (t1/2) was calculated by fitting the data to an exponential decay using the software Prism 5.0 (GraphPad).

Series [2] deals with pal-RNA duplex. The experiment in a line: ITC of N-terminally acetylated peptides with pal-RNA duplex. The series is classed as binding. How it is done:
Isothermal titration calorimetry (ITC) was conducted using a MicroCal VP-ITC (Malvern Panalytical). Before measurement, oligonucleotide and peptide samples were dissolved in PBS and degassed using a ThermoVac (Malvern Panalytical) and heated to 30°C. N-terminally acetylated peptides (c = 3–12 μM) were then transferred into the sample cell and oligonucleotides (c = 12–72 μM) were transferred into the syringe. 35 Injections per measurement were performed at 30°C (8 μl injection volume, 2 s injection time, 180 s spacing, high feedback mode) with an initial delay of 60 s and a stirring speed of 307 rpm. Measurements were performed in triplicate. Using the MicroCal LLC ITC software (Origin; OriginLab Corporation), the heat associated with each injection was calculated by integrating the area under the curve in microcalories per second [μca/s] versus time [min] for each injection and then normalized to concentration. A ‘single set of identical binding sites’ model was used to fit the binding curves from which thermodynamic binding parameters (ΔG, ΔH, ΔS, N and Kd) were obtained.

The subject of series [3] is ds pal-RNA. Description: EMSA with ds pal-RNA. In kind it is binding. The note with it: fluorescein-labeled peptide 6 μM, RNA 3 μM, 10% native PAGE, 4°C. How it is done: Electrophoretic mobility shift assays (EMSAs) were performed using a Bio-Rad Mini-Protean gel system paired with a direct current (DC) power source (PowerPac™ HC, Bio-Rad). Typically, 6 μl solutions containing ds RNA (c = 3 μM) and fluorescein-labeled peptide (c = 6 μM) were incubated in binding buffer (10 mM Tris (pH 8.0), 0.5 mM EDTA, 12.5% glycerol and 150 mM KCl) at 4°C for 1 h. After incubation, bound RNA was resolved from peptide-free RNA using 10% non-denaturing polyacrylamide gels at 120 V in running buffer (25 mM Tris (pH 8.0), 200 mM glycine, 20 mM NaCl) at 4°C for 1 h. Visualization of fluorescent gel-bound species was conducted using a Typhoon Trio + fluorescence scanner (GE Healthcare Life Sciences). For nucleic acid visualization, gels were stained using 2 μl of SYBR™ gold nucleic acid gel dye (Molecular Probes) in 20 ml of TAE buffer (40 mM Tris, 1 mM EDTA, 20 mM acetic acid) for 45 min at RT before being visualized using a FluorChem™ gel documentation system (Alpha Innotech). To assess B3 binding to different ds RNA sequences (Supplementary Figure S20), 6 μl solutions containing hairpin RNA (c = 1 μM) and fluorescein-labeled B3 (c = 2 μM) were incubated in binding buffer (TAE and 10% glycerol) at RT for 1 h, and then resolved using 15% non-denaturing polyacrylamide gels (acrylamide/bis-acrylamide (19:1) in TAE) at 150 V in running buffer (TAE) at 4°C for 1.5 h. Visualization of fluorescent gel-bound species was conducted using a Bio-Rad ChemiDoc (Bio-Rad). Subsequently, gels were stained with SYBR™ gold nucleic acid gel dye (Invitrogen) as described above and visualized using the same imaging system. To assess B3 binding to pre–miR-21 (Supplementary Figure S24), the RNA was prepared at a fixed concentration (c = 1 μM) and incubated with varying concentrations of fluorescein-labeled B3 (c = 0–5 μM) in binding buffer (TAE and 10% glycerol) at RT for 1 h. After incubation, bound nucleic acid complexes were resolved using 15% non-denaturing polyacrylamide gels (acrylamide/bis-acrylamide (19:1) in TAE) at 150 V in running buffer (TAE) at 4°C for 1.5 h, followed by visualization and staining with SYBR™ gold nucleic acid gel dye (Invitrogen).
Background: Mobility shift assays separate free from complexed probe on a gel.

The nature of series [4]: CD spectroscopy, secondary structure content. In kind it is physicochemical. Conditions: fluorescein-labeled peptide 75 μM, 10 mM sodium phosphate pH 7.4, CDNN/PEPFIT; for Helix (α-helicity): unbound. The procedure: Spectra of fluorescein-labeled peptides were recorded with a J-715 circular dichroism spectrometer (Jasco) using a stoppered quartz cuvette (1 mm; Hellma). Peptide samples (c = 75 μM) were prepared in buffer: 10 mM disodium hydrogen phosphate, pH 7.4. For each sample, 10 CD spectra were measured between λ = 190 and 260 nm with continuous scan mode (10 mdeg sensitivity, 1.0 nm resolution, 1.0 nm bandwidth, 2 s integration time, 50 nm/min scan rate). Obtained spectra were averaged, then subtracted from a reference buffer spectrum and smoothed using a fast Fourier transform filter (FFT filter). The mean residue ellipticity (Θ) (deg·cm^2·dmol^−1·10^4) was calculated using Formula (2) and plotted against wavelength (λ) (nm). The ratio of secondary structure elements was calculated with CDNN using the PEPFIT set of reference spectra for secondary structure determination ([45],[46]):(2) where [Θ]m = mean molar ellipticity per peptide bond (degree·cm^2·dmol^−1·10^4), Θ = measured ellipticity (degree), d = optical path length (cm), cg = mass concentration (g·l^−1), MRW = mean residue weight, M = molar mass of the peptide (g·mol^−1) and N = number of peptide bonds.

Chain of proteinase K (P06873 106-384): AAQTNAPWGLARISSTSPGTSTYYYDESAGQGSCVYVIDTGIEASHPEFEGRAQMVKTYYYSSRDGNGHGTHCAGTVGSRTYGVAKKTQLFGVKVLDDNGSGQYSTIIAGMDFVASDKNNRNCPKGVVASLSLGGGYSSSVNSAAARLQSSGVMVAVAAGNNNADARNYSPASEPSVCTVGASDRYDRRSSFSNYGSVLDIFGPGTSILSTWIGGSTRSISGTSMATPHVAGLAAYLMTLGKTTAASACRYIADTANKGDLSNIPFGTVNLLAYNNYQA

On to `CC(C)C[C@H](NC(=O)[C@]1(C)CCCC=CCCC[C@](C)(NC(=O)[C@H](CCC(=O)O)NC(=O)[C@H](CO)NC(=O)[C@@H]2CCCN2C(=O)[C@H](CO)NC(=O)[C@H](CCCCN)NC(=O)[C@H](Cc2c[nH]cn2)NC(=O)CNC(=O)[C@H](CCCNC(=N)N)NC(=O)[C@H](CCC(=O)O)NC(=O)[C@H](CCCCN)NC(=O)[C@H](CCCNC(=N)N)NC(=O)[C@H](CC(N)=O)NC(=O)[C@]2(C)CCCC=CCCCCCC[C@@](C)(NC(=O)[C@H](CCC(N)=O)NC(=O)[C@H](CCCCN)NC(=O)[C@H](CCCCN)NC(=O)COCCOCCNC(=S)Nc3ccc4c(c3)C(=O)OC43c4ccc(O)cc4Oc4cc(O)ccc43)C(=O)N[C@@H](CCC(N)=O)C(=O)N[C@@H](CCCNC(=N)N)C(=O)N[C@@H](CCCCN)C(=O)N[C@@H](CCCNC(=N)N)C(=O)N[C@@H](Cc3c[nH]cn3)C(=O)N[C@@H](CCCCN)C(=O)N2)C(=O)N[C@@H](CCCNC(=N)N)C(=O)N[C@@H](CCCNC(=N)N)C(=O)N[C@@H](CO)C(=O)N1)C(=O)N[C@@H](Cc1c[nH]c2ccccc12)C(=O)N[C@@H](Cc1c[nH]cn1)C(=O)N[C@@H](C)C(=O)N[C@@H](CCCNC(=N)N)C(N)=O` [B1] ({FITC-AEEA}-KKQ[R8]QRKRHK[S5]NRKERGHKSPSE[S5]RRS[S5]LWHAR-NH2; staple 4-11, 24-28), for which the “Half-life (t1/2)” value in series [1] was 829 min. For the same compound, the pKd in series [2] (N-terminally acetylated peptide, PBS pH 7.4, 30°C, single set of identical binding sites model, triplicate, errors 1σ) is 6.59. The “fold increased affinity compared to linear peptide wt33” value in series [2] (unlabeled analogs, pal-RNA) is 5 fold. Further, in series [3], the “binding to ds pal-RNA in EMSA” value is “full disappearance of the ds pal-RNA band”. Further, in series [4], the Random coil came to 13.8%; the β-Sheet came to 19.0%; the β-Turn is 13.1%; the “Helix (α-helicity)” value is 81.8% and 82–85%.
Take `CC(C)C[C@H](NC(=O)[C@H](CCC(=O)O)NC(=O)[C@H](CO)NC(=O)[C@H](CCCNC(=N)N)NC(=O)[C@H](CCCNC(=N)N)NC(=O)[C@H](CCC(N)=O)NC(=O)[C@H](CCC(=O)O)NC(=O)[C@H](CO)NC(=O)[C@@H]1CCCN1C(=O)[C@H](CO)NC(=O)[C@H](CCCCN)NC(=O)[C@H](Cc1c[nH]cn1)NC(=O)CNC(=O)[C@H](CCCNC(=N)N)NC(=O)[C@H](CCC(=O)O)NC(=O)[C@H](CCCCN)NC(=O)[C@H](CCCNC(=N)N)NC(=O)[C@H](CC(N)=O)NC(=O)[C@]1(C)CCCC=CCCC[C@](C)(NC(=O)[C@H](CCCNC(=N)N)NC(=O)[C@H](CCC(N)=O)NC(=O)[C@H](C)NC(=O)[C@H](CCC(N)=O)NC(=O)[C@H](CCCCN)NC(=O)[C@H](CCCCN)NC(=O)COCCOCCNC(=S)Nc2ccc3c(c2)C(=O)OC32c3ccc(O)cc3Oc3cc(O)ccc32)C(=O)N[C@@H](CCCNC(=N)N)C(=O)N[C@@H](Cc2c[nH]cn2)C(=O)N[C@@H](CCCCN)C(=O)N1)C(=O)N[C@@H](Cc1c[nH]c2ccccc12)C(=O)N[C@@H](Cc1c[nH]cn1)C(=O)N[C@@H](C)C(=O)N[C@@H](CCCNC(=N)N)C(N)=O` [A2] ({FITC-AEEA}-KKQAQR[S5]RHK[S5]NRKERGHKSPSEQRRSELWHAR-NH2; staple 7-11): the half-life t1/2 was 3 min. Further, the “Half-life (t1/2)” value in series [1] amounted to 2.3 min. In addition, in series [4], the Random coil was 51.3%, the β-Sheet was determined as 21.6%, the β-Turn is 7.9% and the “Helix (α-helicity)” value stood at 21.9%.
